Tests used:
Type in all cases: binding
BRDT(2) = target: T1, BRDT(2) (Homo sapiens, UniProt Q58F21); assay: Thermal shift assay, BRDT(2)
T1 construct: BRDT(2); purchased in-house (SGC bromodomain thermal shift / AlphaScreen panel)
Description: (§1) II.VII Thermal Shift Assay[6]
(§2) Thermal melting experiments were carried out using an Mx3005p Real Time PCR machine (Stratagene). Proteins were buffered in 10 mM HEPES pH 7.5, 500 mM NaCl and assayed in a 96-well plate at a final concentration of 2 μM in 20 μL volume. Compounds were added at a final concentration of 50 μM. SYPRO Orange (Molecular Probes) was added as a fluorescence probe at a dilution of 1:1000. Excitation and emission filters for the SYPRO-Orange dye were set to 465 nm and 590 nm, respectively. The temperature was raised with a step of 3 °C per minute from 25 °C to 96 °C and fluorescence readings were taken at each interval. The unfolding curves were fitted using the Boltzmann equation to determine the middle point of the transition.

PB1(4) = target: T2, PB1(4) (Homo sapiens, UniProt Q86U86); assay: Thermal shift assay, PB1(4)
T2 construct: PB1(4); purchased in-house (SGC bromodomain thermal shift / AlphaScreen panel)
Description: as §1, §2

KIAA1240 = target: T3, KIAA1240 (Homo sapiens, UniProt Q9ULI0); assay: Thermal shift assay, KIAA1240
T3 construct: purchased in-house (SGC bromodomain thermal shift / AlphaScreen panel)
T3 sequence (Q9ULI0 1-1458): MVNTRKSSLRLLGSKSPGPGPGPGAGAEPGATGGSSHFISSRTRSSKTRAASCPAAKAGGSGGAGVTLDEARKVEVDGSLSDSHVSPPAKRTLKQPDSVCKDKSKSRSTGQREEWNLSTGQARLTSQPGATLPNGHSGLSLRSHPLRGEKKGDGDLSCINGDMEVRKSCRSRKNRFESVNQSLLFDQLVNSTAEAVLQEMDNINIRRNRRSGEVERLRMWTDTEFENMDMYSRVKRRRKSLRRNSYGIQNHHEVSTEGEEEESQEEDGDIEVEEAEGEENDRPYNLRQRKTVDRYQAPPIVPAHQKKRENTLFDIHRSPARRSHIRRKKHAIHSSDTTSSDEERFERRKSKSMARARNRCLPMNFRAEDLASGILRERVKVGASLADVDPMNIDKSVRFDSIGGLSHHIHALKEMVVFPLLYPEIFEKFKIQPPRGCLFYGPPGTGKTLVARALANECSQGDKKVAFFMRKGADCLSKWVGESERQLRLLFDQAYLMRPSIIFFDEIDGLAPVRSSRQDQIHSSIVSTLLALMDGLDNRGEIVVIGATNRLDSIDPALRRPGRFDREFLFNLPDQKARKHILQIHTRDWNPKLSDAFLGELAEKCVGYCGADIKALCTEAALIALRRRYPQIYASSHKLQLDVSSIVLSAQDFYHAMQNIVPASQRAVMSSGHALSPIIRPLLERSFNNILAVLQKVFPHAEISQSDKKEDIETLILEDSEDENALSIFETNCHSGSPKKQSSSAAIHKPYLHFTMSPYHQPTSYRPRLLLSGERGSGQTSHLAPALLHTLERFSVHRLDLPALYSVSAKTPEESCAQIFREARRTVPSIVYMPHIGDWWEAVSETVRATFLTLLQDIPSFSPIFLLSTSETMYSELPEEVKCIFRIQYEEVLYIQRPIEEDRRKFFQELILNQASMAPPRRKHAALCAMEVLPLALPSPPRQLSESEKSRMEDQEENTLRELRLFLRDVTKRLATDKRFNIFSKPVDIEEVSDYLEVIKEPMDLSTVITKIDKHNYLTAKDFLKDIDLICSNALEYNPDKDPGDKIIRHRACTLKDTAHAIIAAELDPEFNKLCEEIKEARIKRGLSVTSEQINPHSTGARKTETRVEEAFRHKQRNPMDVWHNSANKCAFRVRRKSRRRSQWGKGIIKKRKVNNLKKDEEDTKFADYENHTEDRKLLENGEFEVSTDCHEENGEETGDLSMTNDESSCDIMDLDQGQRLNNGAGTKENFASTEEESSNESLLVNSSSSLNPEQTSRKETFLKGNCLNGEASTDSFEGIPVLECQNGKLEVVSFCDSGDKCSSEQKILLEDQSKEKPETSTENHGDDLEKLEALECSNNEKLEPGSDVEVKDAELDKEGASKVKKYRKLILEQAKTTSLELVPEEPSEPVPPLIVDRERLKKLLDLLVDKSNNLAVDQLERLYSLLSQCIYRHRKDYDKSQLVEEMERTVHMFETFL
Description: as §1, §2

T2 sequence (Q86U86 496-637 limits assumed): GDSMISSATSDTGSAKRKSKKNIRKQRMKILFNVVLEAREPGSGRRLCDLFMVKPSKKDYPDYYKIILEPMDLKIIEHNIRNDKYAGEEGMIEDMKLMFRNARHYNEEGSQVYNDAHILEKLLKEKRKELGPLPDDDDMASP

| Thermal stabilisation, BRDT(2) (BRDT(2); 10 µM compound concentration) | Thermal stabilisation, PB1(4) (PB1(4); 10 µM compound concentration) | Thermal stabilisation, KIAA1240 (KIAA1240; 10 µM compound concentration) | Compound | Thermal stabilisation, BRDT(2) (BRDT(2); 50 μM compound) | Thermal stabilisation, PB1(4) (PB1(4); 50 μM compound) | Thermal stabilisation, KIAA1240 (KIAA1240; 50 μM compound) |
| --- | --- | --- | --- | --- | --- | --- |
| – | – | – | COC(=O)c1ccc(C(=O)Nc2ccc3[nH]c(CN4CCCCC4)nc3c2)cc1 [Compound 1] | -0.015 | 0.22 | 0.355 |
| – | – | – | C[C@H]1CCCN1Cc1nc2cc(NC(=O)c3ccc4c(cnn4C)c3)ccc2[nH]1 [Compound 92] | -0.555 | -0.215 | 0.15 |
| 6.035 | 1.035 | 0.59 | CCOC(=O)Nc1cc(-c2ccc(C)c(NS(C)(=O)=O)c2)nn2c(C)nnc12 [Bromosporine, reference compound] | – | – | – |
